# Source: ChEMBL document CHEMBL1146228, “Stellettins L and M, cytotoxic isomalabaricane-type triterpenes, and sterols from the marine sponge Stelletta tenuis” (J Nat Prod, 2007)
# Experiments:
# Type in all cases: functional, cell-based
# HT-29 = test: Cytotoxicity against HT29 cells after 48 hrs by MTT assay; details: Homo sapiens, HT-29, 48 h
# A549 = test: Cytotoxicity against A549 cells after 48 hrs by MTT assay; details: Homo sapiens, A549, 48 h
# SMMC-7721 = test: Cytotoxicity against SMMC7721 cells after 48 hrs by MTT assay; details: Homo sapiens, SMMC-7721, 48 h
# AGS = test: Cytotoxicity against AGS cells after 48 hrs by MTT assay; details: Homo sapiens
compound,measurement,setting,value
CC[C@]1(O)C[C@H]2CN(CCc3c([nH]c4ccccc34)[C@@](C(=O)OC)(c3cc4c(cc3OC)N(C=O)[C@H]3[C@@](O)(C(=O)OC)[C@H](OC(C)=O)[C@]5(CC)C=CCN6CC[C@]43[C@@H]65)C2)C1 [VINCRISTINE],IC50,HT-29,0.21 µM
same,IC50,A549,0.36 µM
same,IC50,SMMC-7721,< 0.12 µM
same,IC50,AGS,< 0.12 µM
CC(/C=C/C=C(C)/C=C/C=C(\C)C(=O)O)=C1/C(=O)C[C@H]2[C@@]3(C)CC[C@H](O)C(C)(C)[C@@H]3CC[C@]12C [STELLETTIN M],IC50,HT-29,42 µM
same,IC50,A549,34 µM
same,IC50,SMMC-7721,90 µM
same,IC50,AGS,2.1 µM
O=c1[nH]cc(F)c(=O)[nH]1 [FLUOROURACIL],IC50,HT-29,540 µM
same,IC50,A549,9.2 µM
same,IC50,SMMC-7721,51 µM
same,IC50,AGS,370 µM
CC(/C=C/C=C(\C)C(=O)O)=C\C=C\C(C)=C1\C(=O)C[C@H]2[C@@]3(C)CC[C@H](O)C(C)(C)[C@@H]3CC[C@]12C [STELLETTIN L],IC50,HT-29,33 µM
same,IC50,A549,28 µM
same,IC50,SMMC-7721,120 µM
same,IC50,AGS,3.9 µM
